Test results reported in PMC6978363, “Chaperone mediated detection of small molecule target binding in cells” (Nature Communications, 2020).

What was measured:
Assay in all cases: biochemical
Details in all cases: read-out: % Inhibition (at 10mM)
NIM1 = target: T1, NIM1 (Homo sapiens, UniProt Q8IY84)
T1 construct: gene NIM1K

Src = Src (Homo sapiens, UniProt P12931)
Abl = target: T2, Abl (Homo sapiens, UniProt P00519)
T2 construct: gene ABL1

GRK4 = GRK4 (Homo sapiens, UniProt P32298)
p38_alpha(direct) = target: T3, p38_alpha(direct) (Homo sapiens, UniProt Q16539)
T3 construct: gene MAPK14; direct

PRKAA2_B1_G3 = target: T4, PRKAA2_B1_G3 (Homo sapiens, UniProt P54646)
T4 construct: gene PRKAA2

EphA4 = EphA4 (Homo sapiens, UniProt P54764)
MSK1 = target: T5, MSK1 (Homo sapiens, UniProt O75582)
T5 construct: gene RPS6KA5

ErbB4 = ErbB4 (Homo sapiens, UniProt Q15303)
PRKAA2_B1_G2 = target: T6, PRKAA2_B1_G2 (Homo sapiens, UniProt P54646)
T6 construct: gene PRKAA2

eEF-2K = target: T7, eEF-2K (Homo sapiens, UniProt O00418)
T7 construct: gene EEF2K

FGFR1 = FGFR1 (Homo sapiens, UniProt P11362)
Ret = Ret (Homo sapiens, UniProt P07949)
MST2 = target: T8, MST2 (Homo sapiens, UniProt Q13188)
T8 construct: gene STK3

NEK1 = NEK1 (Homo sapiens, UniProt Q96PY6)
DYRK3 = DYRK3 (Homo sapiens, UniProt O43781)
PKA = target: T9, PKA (Homo sapiens, UniProt P17612)
T9 construct: gene PRKACA

PKC_alpha = target: T10, PKC_alpha (Homo sapiens, UniProt P17252)
T10 construct: gene PRKCA

CDKL5 = CDKL5 (Homo sapiens, UniProt O76039)
BTK = BTK (Homo sapiens, UniProt Q06187)
CaMKI_delta = target: T11, CaMKI_delta (Homo sapiens, UniProt Q8IU85)
T11 construct: gene CAMK1D

TXK = TXK (Homo sapiens, UniProt P42681)
Blk = Blk (Homo sapiens, UniProt P51451)
RSK1 = target: T12, RSK1 (Homo sapiens, UniProt Q15418)
T12 construct: gene RPS6KA1

PRKAA1_B2_G3 = target: T13, PRKAA1_B2_G3 (Homo sapiens, UniProt Q13131)
T13 construct: gene PRKAA1

YSK1 = target: T14, YSK1 (Homo sapiens, UniProt O00506)
T14 construct: gene STK25

p70S6K = target: T15, p70S6K (Homo sapiens, UniProt P23443)
T15 construct: gene RPS6KB1

RSK3 = target: T16, RSK3 (Homo sapiens, UniProt Q15349)
T16 construct: gene RPS6KA2

PASK = PASK (Homo sapiens, UniProt Q96RG2)
InsR = InsR (Homo sapiens, UniProt P06213)
KSR2 = KSR2 (Homo sapiens, UniProt Q6VAB6)
CSK = CSK (Homo sapiens, UniProt P41240)
PKC_delta = target: T17, PKC_delta (Homo sapiens, UniProt Q05655)
T17 construct: gene PRKCD

PRKAA2 = PRKAA2 (Homo sapiens, UniProt P54646)
PAK6 = PAK6 (Homo sapiens, UniProt Q9NQU5)
ZIPK = target: T18, ZIPK (Homo sapiens, UniProt O43293)
T18 construct: gene DAPK3

MELK = MELK (Homo sapiens, UniProt Q14680)
MARK3 = MARK3 (Homo sapiens, UniProt P27448)
Chain of MARK3 (P27448 whole entry): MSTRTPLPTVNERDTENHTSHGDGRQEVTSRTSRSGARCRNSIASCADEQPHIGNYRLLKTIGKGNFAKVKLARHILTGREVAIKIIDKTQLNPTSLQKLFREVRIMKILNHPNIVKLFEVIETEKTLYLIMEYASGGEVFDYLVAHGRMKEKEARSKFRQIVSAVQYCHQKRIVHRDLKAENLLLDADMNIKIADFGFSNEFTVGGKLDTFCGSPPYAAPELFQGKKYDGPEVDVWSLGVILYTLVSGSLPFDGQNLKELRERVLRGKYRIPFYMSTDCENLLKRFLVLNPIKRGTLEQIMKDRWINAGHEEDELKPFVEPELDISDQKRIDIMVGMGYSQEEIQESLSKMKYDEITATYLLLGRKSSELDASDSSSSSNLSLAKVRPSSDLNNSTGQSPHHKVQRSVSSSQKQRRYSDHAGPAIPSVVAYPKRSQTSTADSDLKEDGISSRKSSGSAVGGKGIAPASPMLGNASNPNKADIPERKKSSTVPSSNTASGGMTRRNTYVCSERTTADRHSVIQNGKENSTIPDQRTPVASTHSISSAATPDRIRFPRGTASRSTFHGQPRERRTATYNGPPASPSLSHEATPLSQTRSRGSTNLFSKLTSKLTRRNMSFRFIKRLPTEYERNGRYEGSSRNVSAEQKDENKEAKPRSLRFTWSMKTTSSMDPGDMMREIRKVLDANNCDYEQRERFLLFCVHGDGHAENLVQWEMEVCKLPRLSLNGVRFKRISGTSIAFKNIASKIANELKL

T16 sequence (Q15349 whole entry): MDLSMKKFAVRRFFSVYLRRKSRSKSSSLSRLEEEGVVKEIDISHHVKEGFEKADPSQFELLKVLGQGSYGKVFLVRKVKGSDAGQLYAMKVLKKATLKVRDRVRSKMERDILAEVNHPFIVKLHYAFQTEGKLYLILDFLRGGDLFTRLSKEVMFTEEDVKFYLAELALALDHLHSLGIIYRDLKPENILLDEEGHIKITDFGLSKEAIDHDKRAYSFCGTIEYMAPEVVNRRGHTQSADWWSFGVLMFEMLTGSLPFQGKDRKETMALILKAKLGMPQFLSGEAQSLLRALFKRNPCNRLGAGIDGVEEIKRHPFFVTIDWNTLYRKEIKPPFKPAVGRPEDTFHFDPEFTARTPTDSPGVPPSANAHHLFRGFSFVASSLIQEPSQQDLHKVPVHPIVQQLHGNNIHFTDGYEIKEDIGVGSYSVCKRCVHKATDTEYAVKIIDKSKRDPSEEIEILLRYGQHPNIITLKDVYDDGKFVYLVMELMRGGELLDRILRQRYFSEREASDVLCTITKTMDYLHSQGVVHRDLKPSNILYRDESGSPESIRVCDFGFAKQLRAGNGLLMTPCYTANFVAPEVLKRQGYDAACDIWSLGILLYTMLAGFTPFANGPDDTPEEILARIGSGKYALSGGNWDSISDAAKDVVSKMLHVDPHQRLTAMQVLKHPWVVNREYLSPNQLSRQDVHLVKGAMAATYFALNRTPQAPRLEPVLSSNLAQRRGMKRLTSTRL
Chain of PAK6 (Q9NQU5 whole entry): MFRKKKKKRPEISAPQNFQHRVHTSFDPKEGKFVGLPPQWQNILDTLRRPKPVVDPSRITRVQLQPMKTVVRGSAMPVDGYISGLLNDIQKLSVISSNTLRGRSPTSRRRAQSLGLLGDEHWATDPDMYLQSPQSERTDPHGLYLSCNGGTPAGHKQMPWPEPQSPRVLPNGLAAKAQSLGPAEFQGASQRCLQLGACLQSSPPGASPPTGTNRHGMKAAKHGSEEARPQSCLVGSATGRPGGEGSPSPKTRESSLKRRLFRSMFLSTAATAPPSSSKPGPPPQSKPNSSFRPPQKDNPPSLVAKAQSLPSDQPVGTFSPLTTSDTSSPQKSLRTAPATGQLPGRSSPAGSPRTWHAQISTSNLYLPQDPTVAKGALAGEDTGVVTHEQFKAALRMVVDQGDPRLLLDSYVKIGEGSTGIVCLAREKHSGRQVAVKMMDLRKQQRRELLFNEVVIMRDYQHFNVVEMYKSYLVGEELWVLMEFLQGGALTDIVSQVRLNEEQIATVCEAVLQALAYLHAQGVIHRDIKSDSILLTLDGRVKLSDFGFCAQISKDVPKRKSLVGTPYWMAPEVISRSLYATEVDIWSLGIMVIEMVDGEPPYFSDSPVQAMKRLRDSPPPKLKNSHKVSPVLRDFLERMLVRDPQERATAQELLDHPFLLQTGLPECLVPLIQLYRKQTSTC
Chain of FGFR1 (P11362 whole entry): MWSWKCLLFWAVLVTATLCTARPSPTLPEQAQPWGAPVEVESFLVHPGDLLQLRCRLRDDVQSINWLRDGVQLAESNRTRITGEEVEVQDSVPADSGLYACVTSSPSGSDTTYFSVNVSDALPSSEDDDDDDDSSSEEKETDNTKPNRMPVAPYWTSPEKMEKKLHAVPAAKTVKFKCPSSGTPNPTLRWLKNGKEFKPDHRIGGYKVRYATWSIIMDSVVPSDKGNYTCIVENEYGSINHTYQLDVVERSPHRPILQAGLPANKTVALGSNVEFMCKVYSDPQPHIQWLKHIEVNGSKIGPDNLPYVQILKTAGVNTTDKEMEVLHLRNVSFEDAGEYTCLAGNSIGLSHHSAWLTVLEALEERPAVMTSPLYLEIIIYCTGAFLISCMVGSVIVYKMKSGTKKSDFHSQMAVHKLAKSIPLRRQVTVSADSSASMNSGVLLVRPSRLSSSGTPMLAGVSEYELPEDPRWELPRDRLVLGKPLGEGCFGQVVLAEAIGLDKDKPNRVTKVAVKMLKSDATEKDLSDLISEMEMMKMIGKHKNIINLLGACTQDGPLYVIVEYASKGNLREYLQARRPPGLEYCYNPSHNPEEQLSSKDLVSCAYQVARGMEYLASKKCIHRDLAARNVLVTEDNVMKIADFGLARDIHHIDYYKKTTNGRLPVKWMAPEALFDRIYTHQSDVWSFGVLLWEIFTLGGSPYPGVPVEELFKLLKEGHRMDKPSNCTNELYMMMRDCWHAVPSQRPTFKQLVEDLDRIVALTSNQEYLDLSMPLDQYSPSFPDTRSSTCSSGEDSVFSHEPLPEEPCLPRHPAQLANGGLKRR
T3 sequence (Q16539 whole entry): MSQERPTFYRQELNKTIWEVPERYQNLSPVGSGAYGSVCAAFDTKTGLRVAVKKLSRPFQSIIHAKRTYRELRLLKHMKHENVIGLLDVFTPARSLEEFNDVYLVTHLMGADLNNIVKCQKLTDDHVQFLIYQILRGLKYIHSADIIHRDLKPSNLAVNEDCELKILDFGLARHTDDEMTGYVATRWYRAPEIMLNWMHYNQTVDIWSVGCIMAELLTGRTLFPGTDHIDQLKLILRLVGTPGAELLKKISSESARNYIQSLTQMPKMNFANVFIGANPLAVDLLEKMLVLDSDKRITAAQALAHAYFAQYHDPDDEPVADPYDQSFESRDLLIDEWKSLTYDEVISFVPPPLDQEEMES
Chain of CSK (P41240 whole entry): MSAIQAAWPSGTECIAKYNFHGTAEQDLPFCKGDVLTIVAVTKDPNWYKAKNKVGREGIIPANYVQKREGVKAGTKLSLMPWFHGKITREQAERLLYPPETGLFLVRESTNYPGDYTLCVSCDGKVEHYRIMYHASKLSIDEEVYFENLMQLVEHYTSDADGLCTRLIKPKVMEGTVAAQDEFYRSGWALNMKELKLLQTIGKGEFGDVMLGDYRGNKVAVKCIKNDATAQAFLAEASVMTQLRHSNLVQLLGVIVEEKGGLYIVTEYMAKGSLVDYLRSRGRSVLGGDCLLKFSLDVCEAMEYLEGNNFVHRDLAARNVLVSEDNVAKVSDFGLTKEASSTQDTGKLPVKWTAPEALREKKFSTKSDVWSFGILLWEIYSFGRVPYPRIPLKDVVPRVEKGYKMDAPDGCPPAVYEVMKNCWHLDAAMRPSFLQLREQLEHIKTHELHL
T14 sequence (O00506 whole entry): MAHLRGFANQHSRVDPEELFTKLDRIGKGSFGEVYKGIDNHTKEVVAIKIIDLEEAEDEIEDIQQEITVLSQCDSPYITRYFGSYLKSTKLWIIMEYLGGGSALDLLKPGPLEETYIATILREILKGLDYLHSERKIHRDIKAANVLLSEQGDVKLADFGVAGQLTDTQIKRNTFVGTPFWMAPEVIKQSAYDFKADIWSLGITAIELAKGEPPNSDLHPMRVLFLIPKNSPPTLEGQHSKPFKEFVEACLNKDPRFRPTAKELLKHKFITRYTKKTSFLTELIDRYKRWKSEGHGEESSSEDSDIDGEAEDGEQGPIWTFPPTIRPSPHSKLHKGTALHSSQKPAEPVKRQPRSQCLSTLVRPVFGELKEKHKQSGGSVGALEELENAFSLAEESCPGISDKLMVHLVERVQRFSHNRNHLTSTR
Chain of BTK (Q06187 whole entry): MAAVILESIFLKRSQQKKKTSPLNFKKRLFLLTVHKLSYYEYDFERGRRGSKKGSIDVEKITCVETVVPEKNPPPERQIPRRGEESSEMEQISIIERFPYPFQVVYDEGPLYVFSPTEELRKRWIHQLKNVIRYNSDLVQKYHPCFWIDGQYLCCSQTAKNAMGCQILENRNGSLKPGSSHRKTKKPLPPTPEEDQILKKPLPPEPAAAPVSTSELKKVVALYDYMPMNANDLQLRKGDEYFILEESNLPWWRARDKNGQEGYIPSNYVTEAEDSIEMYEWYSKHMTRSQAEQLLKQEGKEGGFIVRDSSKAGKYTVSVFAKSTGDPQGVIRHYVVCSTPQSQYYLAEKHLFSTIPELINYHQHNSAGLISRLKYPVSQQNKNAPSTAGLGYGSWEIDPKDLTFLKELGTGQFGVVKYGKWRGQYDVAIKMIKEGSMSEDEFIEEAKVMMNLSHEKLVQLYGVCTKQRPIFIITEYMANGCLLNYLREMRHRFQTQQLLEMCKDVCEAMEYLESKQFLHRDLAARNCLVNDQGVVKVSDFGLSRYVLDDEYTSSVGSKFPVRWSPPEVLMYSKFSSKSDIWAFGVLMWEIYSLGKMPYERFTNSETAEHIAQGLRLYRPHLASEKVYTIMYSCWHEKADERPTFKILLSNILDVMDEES

SMILES: CC(C)(O)CC(=O)NCCn1ccc2ncnc(Nc3ccc(Oc4cccc(C(F)(F)F)c4)c(Cl)c3)c21 [TAK-285]
- inhibition (NIM1): 8.5%
- inhibition (Src): 37.5%
- inhibition (Abl): 9%
- inhibition (GRK4): -11.5%
- inhibition (p38_alpha(direct)): 4%
- inhibition (PRKAA2_B1_G3): 4%
- inhibition (EphA4): 9%
- inhibition (MSK1): 2.5%
- inhibition (ErbB4): 98.5%
- inhibition (PRKAA2_B1_G2): 4.5%
- inhibition (eEF-2K): 7%
- inhibition (FGFR1): 4%
- inhibition (Ret): 15.5%
- inhibition (MST2): 6%
- inhibition (NEK1): 1.5%
- inhibition (DYRK3): -0.5%
- inhibition (PKA): 2.5%
- inhibition (PKC_alpha): 13.5%
- inhibition (CDKL5): 8.5%
- inhibition (BTK): 36%
- inhibition (CaMKI_delta): 0%
- inhibition (TXK): 15%
- inhibition (Blk): 25%
- inhibition (RSK1): 14.5%
- inhibition (PRKAA1_B2_G3): 0.5%
- inhibition (YSK1): 5.5%
- inhibition (p70S6K): 7.5%
- inhibition (RSK3): 2.5%
- inhibition (PASK): 2.5%
- inhibition (InsR): 9.5%
- inhibition (KSR2): 0%
- inhibition (CSK): 56.5%
- inhibition (PKC_delta): 15.5%
- inhibition (PRKAA2): 10.5%
- inhibition (PAK6): 5.5%
- inhibition (ZIPK): 7%
- inhibition (MELK): 5.5%
- inhibition (MARK3): 6.5%
